Data published in article PMC11809180, “RA-PR058, a novel ramalin derivative, reduces BACE1 expression and phosphorylation of tau in Alzheimer’s disease mouse models” (Animal Cells and Systems, 2025).

Experiments:
[1] = system: BACE1; assay: BACE1 expression in brain of 3xTg-AD mice (western blot); type: in vivo, mouse; settings: 20 mg/kg oral daily 4 weeks
Protocol: (§1) 3xTg-AD (B6;129-Tg(APPSwe,tauP301L)1Lfa Psen1^tm1Mpm/Mmjax) mice and their littermate wild-type (WT) mice were used in this study. Each experimental group consisted of 4–8 mice, with groups designated as WT, 3xTg-AD Vehicle, and 3xTg-AD RA-PR058. All mice were maintained in a 12-hour light/dark cycle with free access to food and water. 7-month-old age of mice were administered with 20 mg/kg of RA-PR058 orally once a day for 1 month followed by the elevated plus maze test. All animal experimental procedures were approved by the Institutional Animal Care and Use Committee of Sungkyunkwan University (SKKUIACUC2022-10-41-1).
After EPM was conducted, mice were sacrificed, and brain tissues were collected as previously described (Park et al. [2021]). Mice were anesthetized by injecting Zoletil (Virbac) and Rompun (Bayer) intraperitoneally. After mice were anesthetized, they were perfused with phosphate-buffered saline (PBS). Then, brains were extracted and cut into two hemispheres; one hemisphere was preserved in 4% paraformaldehyde and the other was dissected into the cortex and hippocampus. […]
Samples for western blot analysis were prepared as previously described (Gwon et al. [2012]). […] Protein concentrations were measured using Pierce™ BCA Protein Assay Kits (Thermo Fisher Scientific). […] Protein bands were quantified using ImageJ (NIH).

[2] = system: tau; assay: Tau phosphorylation in brain of 3xTg-AD mice (western blot, DAB staining); type: in vivo, mouse; settings: 20 mg/kg oral daily 4 weeks
Protocol: as §1
After EPM was conducted, mice were sacrificed, and brain tissues were collected as previously described (Park et al. [2021]). Mice were anesthetized by injecting Zoletil (Virbac) and Rompun (Bayer) intraperitoneally. After mice were anesthetized, they were perfused with phosphate-buffered saline (PBS). Then, brains were extracted and cut into two hemispheres; one hemisphere was preserved in 4% paraformaldehyde and the other was dissected into the cortex and hippocampus. Dissected tissues were then snap-frozen in liquid nitrogen and stored at −80 ℃ until further biochemical analysis.
Samples for western blot analysis were prepared as previously described (Gwon et al. [2012]). Cells were lysed with T-PER™ Tissue Protein Extraction Reagent (Thermo Fisher Scientific) supplemented with protease/phosphatase inhibitor cocktail (Thermo Fisher Scientific) and incubated at 4 ℃ for 10 minutes. After incubation, lysed samples were centrifuged at 13,000 x rpm for 10 minutes at 4 ℃ and the supernatant were used for western blot analysis. The cortices and hippocampi tissues were homogenized using RIPA lysis buffer (Millipore) supplemented with protease/phosphatase inhibitor cocktail and incubated at 4 ℃ for 30 minutes. Following incubation, lysed tissues were centrifuged at 13,000 x rpm for 30 minutes at 4 ℃ and the supernatant were used for western blot analysis. Protein concentrations were measured using Pierce™ BCA Protein Assay Kits (Thermo Fisher Scientific). Equal amounts of proteins were mixed with NuPAGE™ LDS Sample Buffer (Invitrogen) and 5% 2-mercaptoethanol (Sigma) and then boiled at 95 ℃ for 5 minutes. 4–12 μg of proteins were loaded onto SDS-polyacrylamide gels and electrophoresed (SDS-PAGE) until the protein bands were fully separated. After SDS-PAGE, the protein bands were transferred onto polyvinylidene fluoride (PVDF) membranes (Millipore). Following transfer, PVDF membranes were blocked with 5% non-fat skim milk in tris-buffered saline with Tween20 (Junsei) (TBS-T) for 1 hour at room temperature. Then, PVDF membranes were incubated overnight at 4 ℃ with primary antibodies against APP (6E10, BioLegend, 803001, 1:1,000), AT8 (Invitrogen, MN1020, 1:1,000), AT180 (Invitrogen, MN1040, 1:1,000), BACE1 (Cell Signaling Technology, 5606, 1:1,000), β-Actin (Sigma, A5441, 1:10,000), p-JNK (Cell Signaling Technology, 4671, 1:1,000), JNK (Cell Signaling Technology, 9252, 1:1,000), p-Tau^S396 (Invitrogen, 44-752G, 1:1,000), Tau13 (BioLegend, 835201, 1:1,000). Following incubation, membranes were washed with TBS-T and incubated with horseradish peroxidase-conjugated anti-mouse secondary antibody (Sigma, AP124P, 1:5,000) or anti-rabbit secondary antibody (Invitrogen, 31460, 1:5,000) for 1 hour at room temperature. […] Protein bands were quantified using ImageJ (NIH). […]

[3] = Microsomal stability; type: in vitro ADME; settings: human, mouse, rat, dog, monkey, liver microsomes, 30 minutes 37 ℃, with and without NADPH, across all microsomes tested
Protocol: The metabolic stability of RA-PR058 was evaluated using liver microsomes from humans and various animal species at 37 ℃. This assay was carried out by SPMED Co., Ltd (Republic of Korea). The test was initiated by adding the 1 μM of RA-PR058 to liver microsomes in the presence or absence of an NADPH regenerating system. After incubation at 37 ℃ for 30 minutes, acetonitrile containing an internal standard was added to each sample to terminate the reaction. Samples were then centrifuged, and the supernatant was analyzed by LC-MS.

## Cl.N[C@@H](CCC(=O)NNc1ccccc1F)C(F)F [RA-PR058, (S)-4-amino-5,5-difluoro-N'-(2-fluorophenyl)pentanehydrazide hydrochloride]
[1]; cortex, normalized with β-Actin
  Cortical BACE1 expression: significantly reduced
[1]; hippocampus
  BACE1 expression in the hippocampus: did not affect
[2]; cortex, normalized with Tau13
  Tau phosphorylation at Ser202/Thr205 (AT8): significantly reduced
  Tau phosphorylation at Ser396: significantly reduced
  Tau phosphorylation at Thr231 (AT180): significantly reduced
[2]; hippocampus
  AT8 expression in the hippocampus: significantly reduced
[2]; hippocampus, AT180, p-Tau S396
  Other phosphorylated tau species in the hippocampus: did not affect
[3]
  remaining at 0.5 h, 1 μM: > 90%
